Entries after “also recorded” stand apart in the source; their conditions may differ.
Tests used:
A. thaliana = experiment: Growth and toxicity tests on A. thaliana (genotype not stated); assay type: in vivo; details: for Effect on growth of A. thaliana: in vivo
Excerpt: (§1) Presumably endogenous transaminase may be specific for the L-enantiomer, so the corresponding D-enantiomer is not metabolized in wildtype plants, but only in plants expressing DAAO. […] The toxicity of some D-amino acids on organisms is not well understood, and has only occasionally been studied in plants (Gamburg K Z & Rekoslavskaya N I (1991) Fiziologiya Rastenii 38, 1236-1246). Apart from A. thaliana, we have also tested the susceptibility of other plant species to D-serine, including poplar, tobacco, barley, maize, tomato and spruce. We found all tested species susceptible to D-serine at concentrations similar to those shown to be toxic for A. thaliana. A proposed mechanism for D-serine toxicity in bacteria is competitive inhibition of […] coupling to pantoic acid, thus inhibiting formation of pantothenic acid (Cosloy S D & McFall E (1973) J. Bacteriol. 114, 685-694). […] A second putative cause of D-amino acid toxicity is through competitive binding to tRNA. […] Genes similar to that encoding bacterial deacylase have also been identified. in A. thaliana (Soutourina J et al. (1996) J. Biol. Chem. 274, 19109-19114), corroborating the possibility that the mode of toxic action of D-amino acids might be through competitive binding to tRNA.

DAAO transgenic plants = experiment: Germination of DAAO transgenic plants on D-Asn; assay type: in vivo; details: 30 mM
Excerpt: The D-amino acid oxidase of the invention may be expressed in the cytosol, peroxisome, or other intracellular compartment of the plant cell. Compartmentalisation of the D-amino acid metabolising polypeptide may be achieved by fusing the nucleic acid sequence encoding the DAAO polypeptide to a sequence encoding a transit peptide to generate a fusion protein. Gene products expressed without such transit peptides generally accumulate in the cytosol. The localization of expressed DAAO in the peroxisome produces H2O2 that can be metabolised by the H2O2 degrading enzyme catalase. Higher levels of D-amino acids may therefore be required to produce damaging levels of H2O2. Expression of DAAO in the cytosol, where levels of catalase activity are lower, reduces the amount of D-amino acid required to produce damaging levels H2O2. Expression of DAAO in the cytosol may be achieved by removing peroxisome targeting signals or transit peptides from the encoding nucleic acid sequence. For example, the dao1 gene (EC: 1.4.3.3: GenBank Acc.-No.: U60066) from the yeast Rhodotorula gracilis (Rhodosporidium toruloides) was cloned as described (WO 03/060133). The last nine nucleotides encode the signal peptide SKL, which guides the protein to the peroxisome sub-cellular organelle.

[1] = system: wild-type Arabidopsis thaliana; experiment: Growth of wild-type A. thaliana plantlets on medium with D-amino acids; assay type: in vivo; details: for Effect on plant growth (FIG. 3): 3 mM in half-concentrated Murashige-Skoog medium, wild type plantlets; for Growth of wild-type plants on selection media: immediately after the cotyledons had emerged; for Growth of wild-type plants (FIG. 4): various concentrations in half-strength MS, 10 d after germination
Method: Wild type Arabidopsis thaliana plantlets were grown on half-concentrated Murashige-Skoog medium (0.5% (wt/vol) sucrose, 0.8% (wt/vol) agar) supplemented with the indicated D-amino acid at either 3 mM (Panel A) or 30 mM (Panel B).
(§2) FIG. 4 D-amino acid dose responses of dao1 transgenic and wild-type A. thaliana. (a-d) Growth of dao1 transgenic line 3:7 (white), 10:7 (light gray), 13:4 (gray) and wild-type (black) plants, in fresh weight per plant, on media containing various concentrations of D-serine, D-alanine, D-isoleucine and D-valine in half-strength MS with 0.5% (wt/vol) sucrose and 0.8% (wt/vol) agar. Different concentration ranges were used for different ID-amino acids. The plants were grown for 10 d after germination under 16 h photoperiods at 24° C.; n=10±s.e.m., except for plants grown on D-isoleucine, where smaller Petri dishes were used, (n=6±s.e.m.).
(§3) T1 seeds of transgenic Arabidopsis plants were surface-sterilized and sown in Petri plates that were sealed with gas-permeable tape. The growth medium was half strength MS19 with 0.5% (wt/vol) sucrose and 0.8% (wt/vol) agar, plus 3 mM D-alanine, 3 mM D-serine or 50 μg/ml kanamycin as the selective agent. Plants were grown for 5 d after germination with a 16 h photoperiod at 24° C. To evaluate the selection efficiency on different substrates, 2,074, 1,914 and 1,810 T1 seeds were sown on D-alanine-, D-serine- and kanamycin-selective plates, respectively, and the number of surviving seedlings was counted (44, 32 and 43, respectively).

[2] = system: T1 seeds of transgenic Arabidopsis plants; experiment: Selection of T1 seeds on selective media; assay type: in vivo; details: for Number of surviving seedlings: 2,074, 1,914 and 1,810 T1 seeds sown on D-alanine (3 mM), D-serine (3 mM) and kanamycin (50 μg/ml) plates, 5 d after germination; for Transformation frequencies found on the selective media: kanamycin 50 μg/ml, D-alanine 3 mM, D-serine 3 mM
Method: as §3
(§4) The T-DNA contained both 35S:dao1 and pNos:nptII, allowing D-amino acid and kanamycin selection to be compared in the same lot of seeds.

[3] = system: dao1 transgenic A. thaliana; experiment: Growth of dao1 (DAAO) transgenic A. thaliana on medium with D-amino acids; assay type: in vivo, Arabidopsis thaliana; details: for Effect on the transgenic plants: concentration of 30 mM; for Development of transgenic plants under selection conditions: in vivo
Method: as §2, §3, §4
Therefore, plants containing the construct were tested as described above on two sets of media, one containing D-isoleucine and the other containing D-valine at various concentrations, to assess whether DAAO could also be used as a counter-selection marker. Unambiguous counter-selection selection was achieved when seeds were sown on either D-isoleucine or D-valine at concentrations greater than 10 mM (FIG. 4 c,d).

wild-type seedlings = experiment: Sprayed (foliar) application on wild-type seedlings; assay type: in vivo, A. thaliana; details: one-week-old seedlings, sprayed on three consecutive days, 50 mM
Excerpt: (§5) Selection of seedlings on media containing D-alanine or D-serine was very rapid compared to selection on kanamycin. […] Therefore, transformants could be distinguished from non-transformed plants directly after germination. The difference between wild-type and transgenic plants after D-amino acid selection was unambiguous, with no intermediate phenotypes. In contrast, intermediate phenotypes are common when kanamycin resistance is used as a selection marker. […] Transgenic seedlings were resistant to foliar application of D-alanine or D-serine, so selection on soil was possible.

Transgenic seedlings = experiment: Foliar application on transgenic seedlings; parameters: species or system A. thaliana; details: in vivo
Excerpt: as §5

tomato = experiment: Susceptibility of other plant species to D-serine; assay type: in vivo; details: concentrations similar to those toxic for A. thaliana
Excerpt: as §1

spruce = experiment: Susceptibility of other plant species to D-serine; assay type: in vivo; details: concentrations similar to those toxic for A. thaliana
Excerpt: as §1

tobacco = experiment: Susceptibility of other plant species to D-serine; assay type: in vivo; details: concentrations similar to those toxic for A. thaliana
Excerpt: as §1

maize = experiment: Susceptibility of other plant species to D-serine; assay type: in vivo; details: concentrations similar to those toxic for A. thaliana
Excerpt: as §1

barley = experiment: Susceptibility of other plant species to D-serine; assay type: in vivo; details: concentrations similar to those toxic for A. thaliana
Excerpt: as §1

poplar = experiment: Susceptibility of other plant species to D-serine; assay type: in vivo; details: concentrations similar to those toxic for A. thaliana
Excerpt: as §1

DAAO = molecular target: T1, DAAO (Rhodotorula toruloides, UniProt P80324); experiment: DAAO incubation of cell-free plant extracts, keto acid production by HPLC; assay type: biochemical, Rhodotorula gracilis; details: cell-free extracts from dao1 transgenic line 10:7
T1 construct: expressed in transfected cells; host or cells: Arabidopsis thaliana (Col-0), dao1 transgenic line 10:7, transformed with pPCV702:dao1 (CaMV 35S); crude soluble protein extract
T1 sequence (P80324 25-368): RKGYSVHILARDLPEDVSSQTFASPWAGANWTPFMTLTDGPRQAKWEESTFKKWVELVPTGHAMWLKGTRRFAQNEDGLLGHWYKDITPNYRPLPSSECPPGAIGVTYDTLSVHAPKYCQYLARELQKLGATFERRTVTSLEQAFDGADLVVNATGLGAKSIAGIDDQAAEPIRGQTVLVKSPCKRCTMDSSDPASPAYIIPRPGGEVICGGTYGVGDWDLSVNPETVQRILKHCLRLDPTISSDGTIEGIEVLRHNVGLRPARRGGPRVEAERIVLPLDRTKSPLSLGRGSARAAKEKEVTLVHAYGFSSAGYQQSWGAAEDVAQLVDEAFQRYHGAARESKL
Method: Soluble proteins were extracted by shaking 0.1 g samples of plant material that had been finely pulverized in a 1.5 ml Eppendorf tube in 1 ml of 0.1 M potassium phosphate buffer, pH 8. DAAO activity was then assayed as follows. Reaction mixtures were prepared containing 2,120 μl of 0.1 M potassium phosphate buffer, pH 8, 80 μl of crude protein extract and 100 μl of 0.3 M D-alanine. The samples were incubated for 2 h at 30° C. The enzyme activity was then assessed, by measuring the increase in absorbance at 220 nm (E=1.090 M^−1 cm^−1) associated with the conversion of D-alanine to pyruvate, after transferring the test tubes to boiling water for […] to stop the reaction. In control reactions, D-alanine was added immediately before boiling. One unit of DAAO activity is defined as the turnover of one micromole of substrate per minute, and activity was expressed per gram plant biomass (fresh weight). The breakdown of D-isoleucine and D-valine in DAAO incubations, and the associated production of 3-methyl-2-oxopentanoate and 3-methyl-2-oxobutanoate, were analyzed by high-performance liquid chromatography. In other respects the reactions were carried out as described above.
Presumably endogenous transaminase may be specific for the L-enantiomer, so the corresponding D-enantiomer is not metabolized in wildtype plants, but only in plants expressing DAAO. […]

CC(C)C(=O)C(=O)O [3-methyl-2-oxobutanoate, 3-methyl-2-oxobutanoate]
Effect on growth of A. thaliana (A. thaliana): impaired growth

CCC(C)C(=O)C(=O)O (stereo not drawn) [3-methyl-2-oxopentanoate]
Effect on growth of A. thaliana (A. thaliana): impaired growth

NC(=O)C[C@@H](N)C(=O)O [D-Asn, D-asparagine]
Inhibition of germination of DAAO transgenic plants (cytosolic and peroxisomal constructs) (DAAO transgenic plants): inhibited significantly more than the wild-type

C[C@@H](N)C(=O)O [D-alanine]
Effect on plant growth (FIG. 3) [1]: severe phytotoxic effects
Growth of wild-type plants on selection media [1]: inhibited growth
Effect on wild-type plantlets (FIG. 2) ([1]; treated with 30 mM): toxic effect
Growth of wild-type plants (FIG. 4) [1]: inhibited even at quite low concentrations
Number of surviving seedlings [2]: 44
Transformation frequencies found on the selective media [2]: 2.12%
Effect on the transgenic plants [3]: no negative effect
Development of transgenic plants under selection conditions [3]: developed normally
Effect on transgenic plantlets comprising DAAO gene (FIG. 2) ([3]; treated with 30 mM): no severe damage
Effect of sprayed application on wild-type seedlings (wild-type seedlings): effectively killed
Response of transgenic seedlings to foliar application (Transgenic seedlings): resistant

N[C@H](CO)C(=O)O [D-serine]
Effect on plant growth (FIG. 3) [1]: severe phytotoxic effects
Growth of wild-type plants on selection media [1]: inhibited growth
Growth of wild-type plants (FIG. 4) [1]: inhibited even at quite low concentrations
Number of surviving seedlings [2]: 32
Concentration at which efficient selection was achieved (FIG. 4a) ([2]; in vivo): lower than 1 mM
Transformation frequencies found on the selective media [2]: 1.67%
Effect on growth of the transgenic plants ([3]; 3 mM): slightly inhibited the growth
Effect on the transgenic plants [3]: significant growth inhibition
Development of transgenic plants under selection conditions [3]: developed normally
Effect of sprayed application on wild-type seedlings (wild-type seedlings): effectively killed
Response of transgenic seedlings to foliar application (Transgenic seedlings): resistant
Susceptibility of tomato (tomato): susceptible
Susceptibility of spruce (spruce): susceptible
Susceptibility of tobacco (tobacco): susceptible
Susceptibility of maize (maize): susceptible
Susceptibility of barley (barley): susceptible
Susceptibility of poplar (poplar): susceptible
Mitigation of toxicity in A. thaliana by pantothenic acid or a-alanine (A. thaliana; pantothenic acid or a-alanine provided): could not be mitigated

CC(C)[C@@H](N)C(=O)O [D-valine]
Effect on wild-type plants at higher concentrations (FIG. 4d) ([1]; higher concentrations): moderately negative effect
Growth of wild-type plants (FIG. 4) [1]: not toxic; also recorded: minor effects; also recorded: not the wild-type plants
Increase in production of 3-methyl-2-oxobutanoate compared to extracts of wild-type plants (DAAO): 7 fold
Growth of plants expressing DAAO (FIG. 4) ([3]; various concentrations in half-strength MS, 10 d after germination): strong negative influence on the growth; also recorded: inhibit growth

CC[C@H](C)[C@H](N)C(=O)O [L-isoleucine]
Effects on wildtype plants ([1]; in vivo): negative effects

NC[C@H]1O[C@H](O[C@H]2[C@H](O)[C@@H](O[C@H]3O[C@H](CO)[C@@H](O)[C@H](N)[C@H]3O)[C@H](N)C[C@@H]2N)[C@H](O)[C@@H](O)[C@@H]1O [kanamycin]
Number of surviving seedlings [2]: 43
Transformation frequencies found on the selective media [2]: 2.37%

Reference: patent US20080039328A1, “Post Harvest Control of Genetically Modified Crop Growth Employing D-Amino Acid Compounds” (BASF PLANT SCIENCE GMBH, priority 2004, published 2008)
